Assay results: patent US6355799B1, “Substituted benzene compounds, process for their preparation, and herbicidal and defoliant compositions containing them” (ISK Americas Incorporated, priority 1997, dated 2002)

Legend:
Assay type in all cases: in vivo
[1] = system: common ragweed (Ambrosia artemisizfolia L., AMBEL); experiment: Pre-emerge test, greenhouse herbicide activity screening; details: rated 14 days after application, 0 = no damage, 100 = complete death
Outline: (§1)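 Sandy loam pots; pre-emerge: sown 1 d pre-spray, surface-watered after, then bottom-watered. Post-emerge: sown 8–21 d before, 2–3 leaf stage, + 0.25% v/v NIS, bottom-watered. Acetone, 187 l/ha track spray, 15–1000 g ai/ha. 0–100 injury score, day 14.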

[2] = system: ivyleaf morningglory (Ipomoea hederacea, IPOHE); experiment: as above; details: rated 14 days after application, 0 = no damage, 100 = complete death
Outline: as §1

[3] = system: green foxtail (Setaria viridis, SETVI); experiment: as above; details: rated 14 days after application, 0 = no damage, 100 = complete death
Outline: as §1

[4] = system: sicklepod (Cassia obtusifolia, CASOB); experiment: as above; details: rated 14 days after application, 0 = no damage, 100 = complete death
Outline: as §1

[5] = system: lambsquarters (Chenopodium album, CHEAL); experiment: as above; details: rated 14 days after application, 0 = no damage, 100 = complete death
Outline: as §1

[6] = system: velvetleaf (Abutilon theophrasti, ABUTH); experiment: as above; details: rated 14 days after application, 0 = no damage, 100 = complete death
Outline: as §1

[7] = system: barnyardgrass (Echinochloa crus-galli, ECHCG); experiment: as above; details: rated 14 days after application, 0 = no damage, 100 = complete death
Outline: as §1

[8] = system: large crabgrass (Digitaria sanguinalis, DIGSA); experiment: as above; details: rated 14 days after application, 0 = no damage, 100 = complete death
Outline: as §1

[9] = system: johnsongrass (Sorghum halepense, SORHA); experiment: as above; details: rated 14 days after application, 0 = no damage, 100 = complete death
Outline: as §1

[10] = system: redroot pigweed (Amaranthus retroflexus, AMARE); experiment: as above; details: rated 14 days after application, 0 = no damage, 100 = complete death
Outline: (§2)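 Compounds in acetone were track-sprayed at 187 l/ha, 15–1000 g ai/ha, onto sandy loam pots. Pre-emerge seeds were sown one day before spraying, with surface watering afterwards. Post-emerge plants were at the 2–3 leaf stage and sprayed with 0.25% v/v non-ionic surfactant. Injury was rated 0–100 at 14 days.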

[11] = system: common ragweed (Ambrosia artemisizfolia L., AMBEL); experiment: Post-emerge test, greenhouse herbicide activity screening; details: post-emerge, 14 days after application, rating scale 0-100
Outline: as §2

[12] = system: ivyleaf morningglory (Ipomoea hederacea, IPOHE); experiment: as above; details: post-emerge, 14 days after application, rating scale 0-100
Outline: as §2

[13] = system: green foxtail (Setaria viridis, SETVI); experiment: as above; details: post-emerge, 14 days after application, rating scale 0-100
Outline: as §2

[14] = system: sicklepod (Cassia obtusifolia, CASOB); experiment: as above; details: post-emerge, 14 days after application, rating scale 0-100
Outline: as §2

[15] = system: lambsquarters (Chenopodium album, CHEAL); experiment: as above; details: post-emerge, 14 days after application, rating scale 0-100
Outline: as §2

[16] = system: velvetleaf (Abutilon theophrasti, ABUTH); experiment: as above; details: post-emerge, 14 days after application, rating scale 0-100
Outline: as §2

[17] = system: barnyardgrass (Echinochloa crus-galli, ECHCG); experiment: as above; details: post-emerge, 14 days after application, rating scale 0-100
Outline: as §2

[18] = system: large crabgrass (Digitaria sanguinalis, DIGSA); experiment: as above; details: post-emerge, 14 days after application, rating scale 0-100
Outline: as §2

[19] = system: johnsongrass (Sorghum halepense, SORHA); experiment: as above; details: post-emerge, 14 days after application, rating scale 0-100
Outline: as §2

[20] = system: redroot pigweed (Amaranthus retroflexus, AMARE); experiment: as above; details: post-emerge, 14 days after application, rating scale 0-100
Outline: as §2

[21] = system: upland rice (Oryza sp., var. Tebonnet, RICE); experiment: Post-emerge test, crop safety; details: post-emerge, 14 days after application, rating scale 0-100
Outline: as §1

[22] = system: field corn (Zea mays L., var. Dekalb 535, CORN); experiment: Post-emerge test, crop safety; details: post-emerge, 14 days after application, rating scale 0-100
Outline: as §1

[23] = system: upland rice (Oryza sp., var. Tebonnet, RICE); experiment: Pre-emerge test, crop safety; details: rated 14 days after application, 0 = no damage, 100 = complete death
Outline: (§3)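 Compounds in acetone were track-sprayed at 15-1000 g ai/ha (187 l/ha) on sandy loam pots: pre-emerge one day after seeding, post-emerge at 2-3 leaf stage with 0.25% v/v non-ionic surfactant. Phytotoxicity was rated 14 days later on a 0 (no damage) to 100 (complete death) scale.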

[24] = system: field corn (Zea mays L., var. Dekalb 535, CORN); experiment: Pre-emerge test, crop safety; details: rated 14 days after application, 0 = no damage, 100 = complete death
Outline: as §3

## COc1c(Cl)cc(F)c(-n2c(=O)cc(C(F)(F)F)n(C)c2=O)c1NC(=O)c1cc([N+](=O)[O-])cc([N+](=O)[O-])c1 [2-70]
[1]; 63 g ai/ha
  Pre-emerge Herbicidal Activity, phytotoxicity rating (0-100), AMBEL: 0
[1]; 250 g ai/ha
  Pre-emerge Herbicidal Activity, phytotoxicity rating (0-100), AMBEL: 30
[2]; 63 g ai/ha
  Pre-emerge Herbicidal Activity, phytotoxicity rating (0-100), IPOHE: 0
[2]; 250 g ai/ha
  Pre-emerge Herbicidal Activity, phytotoxicity rating (0-100), IPOHE: 60
[3]; 63 g ai/ha
  Pre-emerge Herbicidal Activity, phytotoxicity rating (0-100), SETVI: 0
[3]; 250 g ai/ha
  Pre-emerge Herbicidal Activity, phytotoxicity rating (0-100), SETVI: 60
[4]; 63 g ai/ha
  Pre-emerge Herbicidal Activity, phytotoxicity rating (0-100), CASOB: 0
[4]; 250 g ai/ha
  Pre-emerge Herbicidal Activity, phytotoxicity rating (0-100), CASOB: 40
[5]; 63 g ai/ha
  Pre-emerge Herbicidal Activity, phytotoxicity rating (0-100), CHEAL: 80
[5]; 250 g ai/ha
  Pre-emerge Herbicidal Activity, phytotoxicity rating (0-100), CHEAL: 100
[6]; 63 g ai/ha
  Pre-emerge Herbicidal Activity, phytotoxicity rating (0-100), ABUTH: 100
[6]; 250 g ai/ha
  Pre-emerge Herbicidal Activity, phytotoxicity rating (0-100), ABUTH: 90
[7]; 63 g ai/ha
  Pre-emerge Herbicidal Activity, phytotoxicity rating (0-100), ECHCG: 0
[7]; 250 g ai/ha
  Pre-emerge Herbicidal Activity, phytotoxicity rating (0-100), ECHCG: 0
[8]; 63 g ai/ha
  Pre-emerge Herbicidal Activity, phytotoxicity rating (0-100), DIGSA: 0
[8]; 250 g ai/ha
  Pre-emerge Herbicidal Activity, phytotoxicity rating (0-100), DIGSA: 20
[9]; 63 g ai/ha
  Pre-emerge Herbicidal Activity, phytotoxicity rating (0-100), SORHA: 0
[9]; 250 g ai/ha
  Pre-emerge Herbicidal Activity, phytotoxicity rating (0-100), SORHA: 0
[10]; 63 g ai/ha
  Pre-emerge Herbicidal Activity, phytotoxicity rating (0-100), AMARE: 70
[10]; 250 g ai/ha
  Pre-emerge Herbicidal Activity, phytotoxicity rating (0-100), AMARE: 100
[11]; 63 g ai/ha
  phytotoxicity rating AMBEL: 30
[11]; 250 g ai/ha
  phytotoxicity rating AMBEL: 30
[12]; 63 g ai/ha
  phytotoxicity rating IPOHE: 60
[12]; 250 g ai/ha
  phytotoxicity rating IPOHE: 60
[13]; 63 g ai/ha
  phytotoxicity rating SETVI: 20
[13]; 250 g ai/ha
  phytotoxicity rating SETVI: 0
[14]; 63 g ai/ha
  phytotoxicity rating CASOB: 10
[14]; 250 g ai/ha
  phytotoxicity rating CASOB: 20
[15]; 63 g ai/ha
  phytotoxicity rating CHEAL: 50
[15]; 250 g ai/ha
  phytotoxicity rating CHEAL: 70
[16]; 63 g ai/ha
  phytotoxicity rating ABUTH: 100
[16]; 250 g ai/ha
  phytotoxicity rating ABUTH: 100
[17]; 63 g ai/ha
  phytotoxicity rating ECHCG: 0
[17]; 250 g ai/ha
  phytotoxicity rating ECHCG: 0
[18]; 63 g ai/ha
  phytotoxicity rating DIGSA: 0
[18]; 250 g ai/ha
  phytotoxicity rating DIGSA: 0
[19]; 63 g ai/ha
  phytotoxicity rating SORHA: 0
[19]; 250 g ai/ha
  phytotoxicity rating SORHA: 0
[20]; 63 g ai/ha
  phytotoxicity rating AMARE: 70
[20]; 250 g ai/ha
  phytotoxicity rating AMARE: 70
[21]; 63 g ai/ha
  phytotoxicity rating RICE: 0
[21]; 250 g ai/ha
  phytotoxicity rating RICE: 0
[22]; 63 g ai/ha
  phytotoxicity rating CORN: 0
[22]; 250 g ai/ha
  phytotoxicity rating CORN: 0
[23]; 63 g ai/ha
  Pre-emerge phytotoxicity rating (0-100), crop damage, RICE: 0
[23]; 250 g ai/ha
  Pre-emerge phytotoxicity rating (0-100), crop damage, RICE: 10
[24]; 63 g ai/ha
  Pre-emerge phytotoxicity rating (0-100), crop damage, CORN: 0
[24]; 250 g ai/ha
  Pre-emerge phytotoxicity rating (0-100), crop damage, CORN: 0
